Source: patent US20260183275A1, “SUBSTITUTED QUINOLONE COMPOUNDS USEFUL AS INHIBITORS OF TLR9” (Bristol-Myers Squibb Company, priority 2022, published 2026)

Columns and labels:
Assay type in all cases: cell-based
human TLR9 = target: T1, human TLR9 (Homo sapiens, UniProt Q9NR96); assay: TLR9 inhibition reporter assay (HEK-Blue cells, SEAP reporter); settings: HEK-Blue cells overexpressing human TLR9; stimulated with ODN2006 5 nM; SEAP read after 22 hour; dose range 0.05 nM-50 μM
T1 construct: host or cells: HEK-Blue cells
T1 sequence (Q9NR96 26-1032): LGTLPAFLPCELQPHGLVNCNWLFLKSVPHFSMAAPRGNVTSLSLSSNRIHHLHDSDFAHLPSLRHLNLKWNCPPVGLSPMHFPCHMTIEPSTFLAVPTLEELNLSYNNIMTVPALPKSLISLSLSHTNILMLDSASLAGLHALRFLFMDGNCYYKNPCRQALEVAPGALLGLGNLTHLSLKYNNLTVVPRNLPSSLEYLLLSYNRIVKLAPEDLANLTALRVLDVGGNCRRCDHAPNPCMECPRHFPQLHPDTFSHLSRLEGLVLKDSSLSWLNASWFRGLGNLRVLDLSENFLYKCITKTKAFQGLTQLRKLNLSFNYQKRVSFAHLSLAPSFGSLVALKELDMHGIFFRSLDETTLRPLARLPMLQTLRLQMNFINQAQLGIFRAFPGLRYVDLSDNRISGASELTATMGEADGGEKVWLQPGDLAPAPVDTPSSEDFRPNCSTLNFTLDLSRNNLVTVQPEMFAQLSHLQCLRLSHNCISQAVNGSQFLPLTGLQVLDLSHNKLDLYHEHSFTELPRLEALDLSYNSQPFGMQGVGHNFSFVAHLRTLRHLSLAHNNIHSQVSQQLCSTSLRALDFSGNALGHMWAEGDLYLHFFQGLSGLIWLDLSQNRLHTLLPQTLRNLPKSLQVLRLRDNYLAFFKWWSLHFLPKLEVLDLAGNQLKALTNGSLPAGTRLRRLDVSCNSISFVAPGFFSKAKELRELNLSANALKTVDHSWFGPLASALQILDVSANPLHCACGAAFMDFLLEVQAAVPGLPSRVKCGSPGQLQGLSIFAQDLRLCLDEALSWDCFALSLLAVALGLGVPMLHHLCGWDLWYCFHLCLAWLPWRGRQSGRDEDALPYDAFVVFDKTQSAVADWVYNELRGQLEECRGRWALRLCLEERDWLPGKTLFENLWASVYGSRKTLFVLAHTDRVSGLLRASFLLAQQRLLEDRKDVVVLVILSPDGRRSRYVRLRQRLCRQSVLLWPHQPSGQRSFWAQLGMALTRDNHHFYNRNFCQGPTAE
Method in brief: (§1)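 HEK-Blue cells with NF-κB/AP-1-driven SEAP pre-treated 30 min with compounds (0.05 nM-50 μM), then stimulated with gardiquimod 7.5 μM (TLR7), R848 15.9 μM (TLR8) or ODN2006 5 nM (TLR9). SEAP read after 22 h at 37° C; % inhibition relative to agonist+DMSO and reference-inhibitor wells.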

human TLR7 = target: T2, human TLR7 (Homo sapiens, UniProt Q9NYK1); assay: TLR7 inhibition reporter assay (HEK-Blue cells, SEAP reporter); settings: HEK-Blue cells overexpressing human TLR7; stimulated with gardiquimod 7.5 μM; SEAP read after 22 hour; dose range 0.05 nM-50 μM
T2 construct: host or cells: HEK-Blue cells
T2 sequence (Q9NYK1 27-1049): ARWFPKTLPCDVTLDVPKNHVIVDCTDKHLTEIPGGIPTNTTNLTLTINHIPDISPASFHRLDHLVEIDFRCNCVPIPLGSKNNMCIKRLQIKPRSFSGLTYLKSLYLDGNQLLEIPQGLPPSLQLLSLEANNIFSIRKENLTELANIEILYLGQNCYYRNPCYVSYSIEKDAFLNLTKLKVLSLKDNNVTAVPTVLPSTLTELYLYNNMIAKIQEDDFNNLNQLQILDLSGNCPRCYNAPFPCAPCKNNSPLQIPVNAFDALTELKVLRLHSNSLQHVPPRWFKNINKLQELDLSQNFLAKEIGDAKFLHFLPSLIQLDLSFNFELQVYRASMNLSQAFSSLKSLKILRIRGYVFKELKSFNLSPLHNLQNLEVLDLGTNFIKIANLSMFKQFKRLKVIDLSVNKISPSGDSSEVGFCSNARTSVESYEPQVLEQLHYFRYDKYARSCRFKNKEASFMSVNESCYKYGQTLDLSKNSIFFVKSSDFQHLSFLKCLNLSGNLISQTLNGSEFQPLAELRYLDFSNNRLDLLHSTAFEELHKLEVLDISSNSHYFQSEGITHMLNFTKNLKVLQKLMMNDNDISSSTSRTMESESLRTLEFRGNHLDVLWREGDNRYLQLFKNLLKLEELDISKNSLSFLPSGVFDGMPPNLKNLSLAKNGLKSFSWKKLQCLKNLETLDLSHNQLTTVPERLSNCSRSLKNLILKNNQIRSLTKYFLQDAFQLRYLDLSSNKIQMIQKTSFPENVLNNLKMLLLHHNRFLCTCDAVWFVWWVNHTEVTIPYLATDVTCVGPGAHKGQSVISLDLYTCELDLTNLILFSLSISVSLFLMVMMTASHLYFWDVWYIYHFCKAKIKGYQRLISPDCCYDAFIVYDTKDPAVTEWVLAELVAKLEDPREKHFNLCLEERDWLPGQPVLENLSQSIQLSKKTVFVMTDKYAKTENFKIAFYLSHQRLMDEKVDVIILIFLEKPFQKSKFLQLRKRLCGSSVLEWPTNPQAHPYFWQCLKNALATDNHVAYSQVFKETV
Method in brief: as §1

human TLR8 = target: T3, human TLR8 (Homo sapiens, UniProt Q9NR97); assay: TLR8 inhibition reporter assay (HEK-Blue cells, SEAP reporter); settings: HEK-Blue cells overexpressing human TLR8; stimulated with R848 15.9 μM; SEAP read after 22 hour; dose range 0.05 nM-50 μM
T3 construct: host or cells: HEK-Blue cells
T3 sequence (Q9NR97 27-1041): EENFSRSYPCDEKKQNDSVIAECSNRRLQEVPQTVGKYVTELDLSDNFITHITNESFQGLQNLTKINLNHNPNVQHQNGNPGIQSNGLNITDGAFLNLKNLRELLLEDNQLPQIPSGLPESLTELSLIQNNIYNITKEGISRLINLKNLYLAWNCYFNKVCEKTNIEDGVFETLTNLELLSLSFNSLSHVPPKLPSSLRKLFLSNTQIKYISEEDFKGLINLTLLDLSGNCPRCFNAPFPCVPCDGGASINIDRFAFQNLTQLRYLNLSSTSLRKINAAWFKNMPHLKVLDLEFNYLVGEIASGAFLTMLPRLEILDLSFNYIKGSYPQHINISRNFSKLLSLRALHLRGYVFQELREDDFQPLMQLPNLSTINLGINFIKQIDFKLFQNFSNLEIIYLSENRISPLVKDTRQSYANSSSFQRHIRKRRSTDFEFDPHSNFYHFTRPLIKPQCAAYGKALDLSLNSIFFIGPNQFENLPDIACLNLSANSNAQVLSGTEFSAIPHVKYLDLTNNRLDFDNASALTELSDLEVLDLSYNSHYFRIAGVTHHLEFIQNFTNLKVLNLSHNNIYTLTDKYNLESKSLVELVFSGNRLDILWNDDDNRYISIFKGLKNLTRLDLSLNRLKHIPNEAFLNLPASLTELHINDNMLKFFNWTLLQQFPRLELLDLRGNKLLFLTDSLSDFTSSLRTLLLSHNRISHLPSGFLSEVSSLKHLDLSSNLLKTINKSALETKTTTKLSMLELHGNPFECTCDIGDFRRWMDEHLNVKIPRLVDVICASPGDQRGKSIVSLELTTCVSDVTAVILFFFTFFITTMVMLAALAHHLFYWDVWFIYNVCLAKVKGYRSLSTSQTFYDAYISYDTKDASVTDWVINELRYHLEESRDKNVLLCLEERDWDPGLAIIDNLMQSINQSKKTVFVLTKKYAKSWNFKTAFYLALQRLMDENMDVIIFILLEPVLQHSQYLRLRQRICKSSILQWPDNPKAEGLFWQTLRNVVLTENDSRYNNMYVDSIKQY
Method in brief: as §1

IC50 (human TLR9) | IC50 (human TLR7) | IC50 (human TLR8) | Structure (SMILES)
2.27 µM | ≥ 50 µM | 1.9 µM | Cn1c(=O)c(-c2ccccc2)cc2cc(-c3ccc(C4CCN(C5COC5)CC4)cc3)ccc21 [Example 100, 1-methyl-6-{4-[1-(oxetan-3-yl)piperidin-4-yl]phenyl}-3-phenyl-1,2-dihydroquinolin-2-one]
2.37 µM | ≥ 50 µM | 1.34 µM | CCc1c(-c2ccc(S(C)(=O)=O)cc2)c(=O)n(C)c2ccc(-c3ccc(C4CCN(C5COC5)CC4)cc3)cc12 [Example 101, 4-ethyl-3-(4-methanesulfonylphenyl)-1-methyl-6-{4-[1-(oxetan-3-yl)piperidin-4-yl]phenyl}-1,2-dihydroquinolin-2-one]
